Results published in patent publication US8143243B2, “Compounds for the treatment of hepatitis C” (Bristol-Myers Squibb Company, priority 2007, dated 2012).
Where two headings read alike, the source gives them in different places.

What was measured:
HCV NS5B = target: T1, HCV NS5B (Hepatitis C virus genotype 1b, UniProt Q9WMX2); experiment: HCV NS5B RdRp enzyme assay (standard / modified); assay type: biochemical
T1 construct: The protein was expressed with an 18 amino acid C-terminal truncation to enhance the solubility; made in house; host or cells: E. coli BL21 (DE3)
In short: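 SPA detection of 3H-UTP (0.29 μM) incorporation by C-terminally truncated (18 aa) genotype 1b NS5B from E. coli, on polyA/biotin-oligo-dT12 at 30° C, pH 7.5 Hepes, 2% DMSO. Modified format: 14 nM enzyme, 0.2 nM template, 20 nM primer prebound to beads, 4 h; standard: 28 nM, 6 nM, 180 nM free primer, 60 min. Seven-point IC50 fit.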

HCV replicon cells = experiment: HCV replicon FRET / luciferase assay; assay type: cell-based; details: Hepatitis C virus
In short: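 HCV replicon cells (with or without Renilla luciferase reporter) were plated with titrated compounds at 37 °C. After Alamar blue toxicity reading, cells were lysed in reagent containing 20 μM EDANS/DABCYL NS3 protease FRET peptide and 150 mM NaCl, read kinetically at 340/490 nm, or assayed by Dual-Glo luciferase.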

[1] = HCV RdRp genotype 1b enzyme, read-out: IC50
[2] = HCV replicon cells, FRET or luciferase readout, read-out: EC50

T1 sequence (Q9WMX2 2420-2992): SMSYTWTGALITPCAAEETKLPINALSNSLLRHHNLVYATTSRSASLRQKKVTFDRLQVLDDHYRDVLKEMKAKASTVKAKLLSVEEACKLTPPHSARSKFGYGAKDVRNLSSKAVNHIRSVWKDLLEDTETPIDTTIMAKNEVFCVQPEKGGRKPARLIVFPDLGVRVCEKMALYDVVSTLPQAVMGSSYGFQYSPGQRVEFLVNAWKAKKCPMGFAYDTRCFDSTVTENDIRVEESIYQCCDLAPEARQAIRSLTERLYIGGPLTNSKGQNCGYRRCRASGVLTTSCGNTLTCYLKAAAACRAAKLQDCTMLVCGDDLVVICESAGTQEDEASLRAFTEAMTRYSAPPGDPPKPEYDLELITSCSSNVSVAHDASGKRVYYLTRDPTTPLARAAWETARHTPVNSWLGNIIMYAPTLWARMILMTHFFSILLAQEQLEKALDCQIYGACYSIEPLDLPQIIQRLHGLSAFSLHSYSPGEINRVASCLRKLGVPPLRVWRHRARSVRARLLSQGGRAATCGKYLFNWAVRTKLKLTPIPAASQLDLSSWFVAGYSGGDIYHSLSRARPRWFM

Row | SMILES | IC50 (HCV NS5B; [1]) | EC50 (HCV replicon cells; [2]) | IC50 (HCV NS5B) | EC50 (HCV replicon cells)
1 | COc1ccc2c(c1)C=C(c1c(C(=O)N3CCOCC3)cnn1C)Cn1c-2c(C2CCCCC2)c2ccc(C(=O)NS(=O)(=O)C(C)C)cc21 | 1 to 500 nM | 1 to 500 nM |  | 
2 | CCC(C)S(=O)(=O)NC(=O)c1ccc2c(C3CCCCC3)c3n(c2c1)CC(c1c(C(=O)N2C4CCCC2COC4)cnn1C)=Cc1cc(OC)ccc1-3 (stereo not shown) |  |  | 1 to 500 nM | 1 to 500 nM
3 | COc1ccc2c(c1)C=C(c1c(C(=O)N3[C@@H]4CC[C@H]3CN(C)C4)cnn1C(C)C)Cn1c-2c(C2CCCCC2)c2ccc(C(=O)NS(=O)(=O)CC(C)C)cc21 |  |  | 1 to 500 nM | 1 to 500 nM
4 | COc1ccc2c(c1)C=C(c1c(C(=O)N3CCOCC3)cnn1C(C)C)Cn1c-2c(C2CCCCC2)c2ccc(C(=O)NS(=O)(=O)CC(C)C)cc21 | 1 to 500 nM | 1 to 500 nM |  | 
5 | COc1ccc2c(c1)C=C(c1c(C(=O)N3C[C@@H](C)O[C@@H](C)C3)c(C)nn1C)Cn1c-2c(C2CCCCC2)c2ccc(C(=O)NS(=O)(=O)C(C)C)cc21 | 1 to 500 nM | 1 to 500 nM |  | 
6 | COC[C@@H]1CN(C(=O)c2cnn(C)c2C2=Cc3cc(OC)ccc3-c3c(C4CCCCC4)c4ccc(C(=O)NS(=O)(=O)C(C)C)cc4n3C2)CCO1 | 1 to 500 nM | 1 to 500 nM |  | 
7 | COc1ccc2c(c1)C=C(c1c(C(=O)N3C4CCC3CN(C)C4)cnn1C)Cn1c-2c(C2CCCCC2)c2ccc(C(=O)NS(=O)(=O)C3CC3)cc21 |  |  | 1 to 500 nM | 1 to 500 nM
8 | COC[C@@H]1CN(C(=O)c2cnn(C)c2C2=Cc3cc(OC)ccc3-c3c(C4CCCCC4)c4ccc(C(=O)NS(=O)(=O)N5CCOCC5)cc4n3C2)CCO1 | 1 to 500 nM | 1 to 500 nM |  | 
9 | COc1ccc2c(c1)C=C(c1c(C(=O)N3C4COCC3COC4)cnn1C(C)C)Cn1c-2c(C2CCCCC2)c2ccc(C(=O)NS(=O)(=O)C(C)C)cc21 |  |  | 1 to 500 nM | 1 to 500 nM
10 | COC[C@@H]1CN(C(=O)c2cnn(C(C)C)c2C2=Cc3cc(OC)ccc3-c3c(C4CCCCC4)c4ccc(C(=O)NS(=O)(=O)C(C)C)cc4n3C2)CCO1 | 1 to 500 nM | 1 to 500 nM |  | 
11 | COc1ccc2c(c1)C=C(c1ocnc1C(=O)N1CCOCC1)Cn1c-2c(C2CCCCC2)c2ccc(C(=O)NS(=O)(=O)N3CCOCC3)cc21 | 1 to 500 nM | 1 to 500 nM |  | 
12 | COc1ccc2c(c1)C=C(c1c(C(=O)N3CCOCC3)cnn1C)Cn1c-2c(C2CCCCC2)c2ccc(C(=O)NS(=O)(=O)C3CCCC3)cc21 | 1 to 500 nM | 1 to 500 nM |  | 
13 | CCN1C[C@@H]2C[C@H]1CN2C(=O)c1cnn(CC(F)(F)F)c1C1=Cc2cc(OC)ccc2-c2c(C3CCCCC3)c3ccc(C(=O)NS(=O)(=O)C(C)C)cc3n2C1 | 1 to 500 nM | 1 to 500 nM |  | 
14 | COc1ccc2c(c1)C=C(c1sccc1C(=O)N1C3CCC1CN(C)C3)Cn1c-2c(C2CCCCC2)c2ccc(C(=O)NS(=O)(=O)C(C)C)cc21 |  |  | 1 to 500 nM | 1 to 500 nM
15 | COc1ccc2c(c1)C=C(c1ocnc1C(=O)N1CCOCC1)Cn1c-2c(C2CCCCC2)c2ccc(C(=O)NS(=O)(=O)N(C)C)cc21 | 1 to 500 nM | 1 to 500 nM |  | 
16 | COc1ccc2c(c1)C=C(c1ocnc1C(=O)N1CCOCC1)Cn1c-2c(C2CCCCC2)c2ccc(C(=O)NS(=O)(=O)C3CC3)cc21 | 1 to 500 nM | 1 to 500 nM |  | 
17 | CCn1nc(C)c(C(=O)OC)c1C1=Cc2cc(OC)ccc2-c2c(C3CCCCC3)c3ccc(C(=O)O)cc3n2C1 | > 500 nM | > 500 nM |  | 
